Source: patent US5292733A, “Cephalosporin compounds” (Lucky Limited, priority 1991, dated 1994)
≈ marks a conversion by molar mass, not a printed value.

Key:
Assay in all cases: Antibacterial activity MIC, two-fold agar dilution
Format in all cases: cell-based
[1] = tested on: Acinetobacter calcoaceticus ATCC 15473; settings: ATCC15473; Acinetobacter calcoaceticus ATCC 15473; Muller-Hinton agar, 37° C., 20 hours; read-out: Antibacterial Activity MIC
Protocol: (§1) These MIC values were taken by employing a two-fold dilution method: that is, two-fold serial dilutions of each of the test compounds were made and dispersed in a Muller-Hinton agar medium; 2 μl of the standard test strain which had the 10^7 CFU(Colony Forming Unit) per ml was inoculated on the medium; and these were incubated at 37° C. for 20 hours. The results of the MIC tests are shown Table 1.

[2] = tested on: Bacillus cereus ATCC 11778; settings: ATCC11778; Bacillus cereus ATCC 11778; Muller-Hinton agar, 37° C., 20 hours; read-out: Antibacterial Activity MIC
Protocol: as §1

[3] = tested on: Bacillus megaterium ATCC 9885; settings: Priestia megaterium, ATCC9885; Bacillus megaterium ATCC 9885; Muller-Hinton agar, 37° C., 20 hours; read-out: Antibacterial Activity MIC
Protocol: as §1

[4] = tested on: Citrobacter freundii ATCC 8090; settings: ATCC8090; Citrobacter freundii ATCC 8090; Muller-Hinton agar, 37° C., 20 hours; read-out: Antibacterial Activity MIC
Protocol: as §1

[5] = tested on: Enterobacter aerogenes ATCC 29751; settings: Klebsiella aerogenes, ATCC29751; Enterobacter aerogenes ATCC 29751; Muller-Hinton agar, 37° C., 20 hours; read-out: Antibacterial Activity MIC
Protocol: as §1

[6] = tested on: Enterobacter cloacae ATCC 27508; settings: ATCC27508; Enterobacter cloacae ATCC 27508; Muller-Hinton agar, 37° C., 20 hours; read-out: Antibacterial Activity MIC
Protocol: as §1

[7] = tested on: Escherichia coli ATCC 10536; settings: ATCC10536, Muller-Hinton agar, 37° C., 20 hours
Protocol: as §1

[8] = tested on: Escherichia coli ATCC 25922; settings: ATCC25922, Muller-Hinton agar, 37° C., 20 hours
Protocol: as §1

[9] = tested on: Klebsiella pneumoniae ATCC 10031; settings: ATCC10031; Klebsiella pneumoniae ATCC 10031; Muller-Hinton agar, 37° C., 20 hours; read-out: Antibacterial Activity MIC
Protocol: as §1

[10] = tested on: Micrococcus luteus ATCC 9341; settings: ATCC9341; Micrococcus luteus ATCC 9341; Muller-Hinton agar, 37° C., 20 hours; read-out: Antibacterial Activity MIC
Protocol: as §1

[11] = tested on: Morganella morganii ATCC 8076h; settings: ATCC8076H, Muller-Hinton agar, 37° C., 20 hours
Protocol: as §1

[12] = tested on: Proteus mirabilis ATCC 25933; settings: ATCC25933; Proteus mirabilis ATCC 25933; Muller-Hinton agar, 37° C., 20 hours; read-out: Antibacterial Activity MIC
Protocol: as §1

[13] = tested on: Proteus vulgaris ATCC 6059; settings: ATCC6059; Proteus vulgaris ATCC 6059; Muller-Hinton agar, 37° C., 20 hours; read-out: Antibacterial Activity MIC
Protocol: as §1

[14] = tested on: Providencia rettgeri ATCC 9250; settings: ATCC9250, Muller-Hinton agar, 37° C., 20 hours
Protocol: as §1

[15] = tested on: Pseudomonas aeruginosa ATCC 10145; settings: ATCC10145; Pseudomonas aeruginosa ATCC 10145; Muller-Hinton agar, 37° C., 20 hours; read-out: Antibacterial Activity MIC
Protocol: as §1

[16] = tested on: Pseudomonas aeruginosa ATCC 25619; settings: ATCC25619; Pseudomonas aeruginosa ATCC 25619; Muller-Hinton agar, 37° C., 20 hours; read-out: Antibacterial Activity MIC
Protocol: as §1

[17] = tested on: Pseudomonas aeruginosa ATCC 27853; settings: ATCC27853; Pseudomonas aeruginosa ATCC 27853; Muller-Hinton agar, 37° C., 20 hours; read-out: Antibacterial Activity MIC
Protocol: as §1

[18] = tested on: Salmonella typhimurium ATCC 14028; settings: Salmonella enterica; Salmonella typhimurium ATCC 14028; Muller-Hinton agar, 37° C., 20 hours; read-out: Antibacterial Activity MIC
Protocol: as §1

[19] = tested on: Serratia marcescens ATCC 27117; settings: ATCC27117; Serratia marcescens ATCC 27117; Muller-Hinton agar, 37° C., 20 hours; read-out: Antibacterial Activity MIC
Protocol: as §1

[20] = tested on: Shigella flexneri ATCC 11836; settings: ATCC11836, Muller-Hinton agar, 37° C., 20 hours
Protocol: as §1

[21] = tested on: Shigella sonnei ATCC 11060; settings: ATCC11060, Muller-Hinton agar, 37° C., 20 hours
Protocol: as §1

[22] = tested on: Staphylococcus aureus ATCC 10537; settings: ATCC10537; Staphylococcus aureus ATCC 10537; Muller-Hinton agar, 37° C., 20 hours; read-out: Antibacterial Activity MIC
Protocol: as §1

[23] = tested on: Staphylococcus aureus ATCC 6538p; settings: ATCC6538P; Staphylococcus aureus ATCC 6538p; Muller-Hinton agar, 37° C., 20 hours; read-out: Antibacterial Activity MIC
Protocol: as §1

[24] = tested on: Staphylococcus epidermidis ATCC 12228; settings: ATCC12228; Staphylococcus epidermidis ATCC 12228; Muller-Hinton agar, 37° C., 20 hours; read-out: Antibacterial Activity MIC
Protocol: as §1

[25] = tested on: Streptococcus faecalis ATCC 29212; settings: Enterococcus faecalis, ATCC29212; Streptococcus faecalis ATCC 29212; Muller-Hinton agar, 37° C., 20 hours; read-out: Antibacterial Activity MIC
Protocol: as §1

| SMILES | MIC [1] | MIC [2] | MIC [3] | MIC [4] | MIC [5] | MIC [6] | MIC [7] | MIC [8] | MIC [9] | MIC [10] | MIC [11] | MIC [12] | MIC [13] | MIC [14] | MIC [15] | MIC [16] | MIC [17] | MIC [18] | MIC [19] | MIC [20] | other results |
| --- | --- | --- | --- | --- | --- | --- | --- | --- | --- | --- | --- | --- | --- | --- | --- | --- | --- | --- | --- | --- | --- |
| C#CCO/N=C(\C(=O)N[C@@H]1C(=O)N2C(C(=O)[O-])=C(CSc3cc(N)[n+](C)c(N)n3)CS[C@H]12)c1csc(N)n1 [Compound I-14, (6R,7R)-7-[(Z)-2-(2-aminothiazol-4-yl)-2-(2-propyn-1-oxyimino)acetamido]-3-(2,6-diamino-1-methylpyrimidinium-4-yl)thiomethyl-3-cephem-4-carboxylate] | 8 µg/mL (≈ 13.9 µM) | 64 µg/mL (≈ 111 µM) | 0.25 µg/mL (≈ 0.434 µM) | 0.25 µg/mL (≈ 0.434 µM) | 0.5 µg/mL (≈ 0.869 µM) | 0.016 µg/mL (≈ 0.0278 µM) | 0.5 µg/mL (≈ 0.869 µM) | 0.25 µg/mL (≈ 0.434 µM) | 0.016 µg/mL (≈ 0.0278 µM) | 0.031 µg/mL (≈ 0.0539 µM) | 0.016 µg/mL (≈ 0.0278 µM) | 1 µg/mL (≈ 1.74 µM) | 1 µg/mL (≈ 1.74 µM) | ≤ 0.008 µg/mL | 8 µg/mL (≈ 13.9 µM) | 1 µg/mL (≈ 1.74 µM) | 4 µg/mL (≈ 6.95 µM) | 0.25 µg/mL (≈ 0.434 µM) | 0.5 µg/mL (≈ 0.869 µM) | 0.063 µg/mL (≈ 0.109 µM) | MIC [21]: 0.5 µg/mL (≈ 0.869 µM); MIC [22]: 0.5 µg/mL (≈ 0.869 µM); MIC [23]: 0.5 µg/mL (≈ 0.869 µM); MIC [24]: 0.25 µg/mL (≈ 0.434 µM); MIC [25]: 16 µg/mL (≈ 27.8 µM) |
| C#CCO/N=C(\C(=O)N[C@@H]1C(=O)N2C(C(=O)[O-])=C(CSc3cc(N)[n+](CC)c(N)n3)CS[C@H]12)c1csc(N)n1 [Compound I-15, (6R,7R)-7-[(Z)-2-(2-aminothiazol-4-yl)-2-(2-propyn-1-oxyimino)acetamido]-3-(2,6-diamino-1-ethylpyrimidinium-4-yl)thiomethyl-3-cephem-4-carboxylate] | 8 µg/mL (≈ 13.6 µM) | 32 µg/mL (≈ 54.3 µM) | 0.25 µg/mL (≈ 0.424 µM) | 0.25 µg/mL (≈ 0.424 µM) | 1 µg/mL (≈ 1.7 µM) | 0.031 µg/mL (≈ 0.0526 µM) | 0.25 µg/mL (≈ 0.424 µM) | 0.5 µg/mL (≈ 0.848 µM) | 0.016 µg/mL (≈ 0.0271 µM) | 0.031 µg/mL (≈ 0.0526 µM) | 0.016 µg/mL (≈ 0.0271 µM) | 0.5 µg/mL (≈ 0.848 µM) | 1 µg/mL (≈ 1.7 µM) | ≤ 0.008 µg/mL | 8 µg/mL (≈ 13.6 µM) | 1 µg/mL (≈ 1.7 µM) | 4 µg/mL (≈ 6.78 µM) | 0.5 µg/mL (≈ 0.848 µM) | 0.5 µg/mL (≈ 0.848 µM) | 0.13 µg/mL (≈ 0.22 µM) | MIC [21]: 0.5 µg/mL (≈ 0.848 µM); MIC [22]: 0.5 µg/mL (≈ 0.848 µM); MIC [23]: 0.5 µg/mL (≈ 0.848 µM); MIC [24]: 0.25 µg/mL (≈ 0.424 µM); MIC [25]: 16 µg/mL (≈ 27.1 µM) |
| C[n+]1c(N)cc(SCC2=C(C(=O)[O-])N3C(=O)[C@@H](NC(=O)/C(=N\OCC(=O)O)c4csc(N)n4)[C@H]3SC2)nc1N [Compound I-17, (6R,7R)-7-[(Z)-2-(2-aminothiazol-4-yl)-2-(carboxymethoxyimino)acetamido]-3-(2,6-diamino-1-methylpyrimidinium-4-yl)thiomethyl-3-cephem-4-carboxylate] | 16 µg/mL (≈ 26.9 µM) | > 128 µg/mL | 0.5 µg/mL (≈ 0.839 µM) | 0.031 µg/mL (≈ 0.052 µM) | 1 µg/mL (≈ 1.68 µM) | 0.016 µg/mL (≈ 0.0269 µM) | 0.031 µg/mL (≈ 0.052 µM) | 0.016 µg/mL (≈ 0.0269 µM) | 0.031 µg/mL (≈ 0.052 µM) | 1 µg/mL (≈ 1.68 µM) | ≤ 0.008 µg/mL | 0.031 µg/mL (≈ 0.052 µM) | 0.063 µg/mL (≈ 0.106 µM) | ≤ 0.008 µg/mL | 4 µg/mL (≈ 6.72 µM) | 1 µg/mL (≈ 1.68 µM) | 2 µg/mL (≈ 3.36 µM) | 0.063 µg/mL (≈ 0.106 µM) | 0.063 µg/mL (≈ 0.106 µM) | 0.016 µg/mL (≈ 0.0269 µM) | MIC [21]: 0.031 µg/mL (≈ 0.052 µM); MIC [22]: 4 µg/mL (≈ 6.72 µM); MIC [23]: 8 µg/mL (≈ 13.4 µM); MIC [24]: 2 µg/mL (≈ 3.36 µM); MIC [25]: > 128 µg/mL |
